The subject of assay [1] is cornea. Put plainly: Porcine Eye Corneal Stiffening Assay. The settings on record: UVA 9 mm circle, 365 nm, 30 mW/cm^2, CW, 8.1 min, 15 J, 21% O2, 37.0° C., untreated cornea = 10.1. As for the experimental part:
Porcine whole globes in saline at 4° C. were warmed to room temperature. The eyes were either immediately placed into custom movable eye holders in a horizontal position with the cornea facing upward or were first de-epithelialized with a dulled scalpel blade before being placed in the holder. The eye holders were then positioned inside an enclosed chamber that allows for the control of atmosphere, temperature and humidity (typically a water bath at 37.0° C.). A solution of test compound held in place by a small rubber O-ring on the center of the cornea is then allowed to soak into the cornea surface of the test eye. After a set soaking time (typically 10 minutes) the O-ring is removed and any excess test solution washed away with saline. A specific pattern of UVA light at 365 nm is administered to the test eye cornea over a desired dosing period. A corneal flap of desired thickness (typically 200 μm is then excised from the eyes using a femtosecond laser (Zeimer, LDV1). The corneal flap is placed in saline at ambient temperature for 20 minutes and then mounted onto a biaxial extensiometer (CellScale Biotester5000, Waterloo, ON), using biorake attachments (5 tines spanning a width of 3.5 mm). The corneal flap is stretched at a constant rate of 4 μm/s in saline at 37° C. until sample failure. The maximum slope of the force vs distance curve is calculated and compared to that obtained from an untreated cornea.
The following notes provide further clarification regarding certain steps in the assay: • (1) A solution of the test compound (typically 0.22% w/v in saline) is held in place by a small rubber O-ring on the center of the cornea is then allowed to soak into the cornea surface of the test eye. After a set soaking time of 5-30 minutes (typically 10 minutes) the O-ring is removed and any excess test solution washed away with saline. • (2) A corneal flap of desired thickness and diameter (typically 200 μm thick by 8 mm diameter) is then excised from the eyes using a femtosecond laser (Zeimer, LDV1). The corneal flap is either placed in saline at ambient temperature for 20 minutes and then mounted in saline onto a biaxial extensiometer (CellScale Biotester5000, Waterloo, ON) or mounted directly onto the tester in 5% Dextran T500/saline. • (3) Biorake attachments (5 tines spanning a width of 3.5 mm) are used to hold the flap as it is stretched at 37° C. and a constant rate of 4 μm/s in both X (5 N load cell) and Y (10 N load cell) directions simultaneously. • (4) The maximum slope of the force vs distance curve corresponds to the stiffening value. It is compared to that obtained from an untreated cornea.

Assay [2] has as its system cornea. Nature of the assay: Porcine Eye Corneal Flattening Assay. The settings on record: overall change in keratometry (Km) of central 3 mm zone; UVA 4 mm circle, 365 nm, 30 mW/cm^2, CW, 8.1 min, 15 J total dose, normal (21% O2) atmosphere, 37.0° C. The procedure: Porcine whole globes in saline at 4° C. were warmed to room temperature. The corneas were then de-epithelialized with a dulled scalpel blade and the eyes placed into custom movable eye holders in a horizontal position with the cornea facing upward. The eye holders were then positioned inside an enclosed chamber that allows for the control of atmosphere, temperature and humidity (typically a water bath at 37.0° C.). IOP is maintained at a constant pressure by the insertion of a blood bank buffered saline line from an IV bag at a standard height inserted into each eye via a syringe needle. 5% Dextran T500 in blood bank buffered saline is dropped onto the surface of the cornea of each eye every 90 sec for 2 hours to allow the eyes to stabilize. […] The test eye is then orientated in a vertical position and the pre-treatment surface keratometry of the cornea measured using a Pentacam® HR device fine cornea 100 scan. […] After a further 1.5 hours during which the 5% dextran drops are resumed the eye is orientated back to the vertical position and the post-treatment surface keratometry of the cornea measured using a Pentacam® HR device fine cornea 100 scan as before. The difference map between the pre and post treatment corneal images is obtained and the overall change in keratometry (Km) of the central 3 mm zone recorded as a change in diopters. […]

The mark [3] stands for this setting: maximum slope of force vs distance curve of corneal flap.
The mark [4] stands for this setting: eyes were not de-epithelialized prior to treatment.

Marks after values point to notes of the source that are not given here.

`CC1(CCN(CCC2(C)N=N2)CC(=O)O)N=N1` [Example 13] showed a Max slope in the assay on cornea [1] (setting [3]) of 12.38.
As to `CC1(CCNCC(=O)NCCC2(C)N=N2)N=N1` [Example 1], the “Refractive Change (D)” value with cornea [2] is −0.32 D. In addition, the Max slope in the assay with cornea [1] (setting [3]) is listed as 11.28.
On to `CC1(CCNCCC(=O)N[C@@H](CCCCNC(=N)N)C(=O)NCCC2(C)N=N2)N=N1` [Example 10], for which the “Refractive Change (D)” value in the assay on cornea [2] is −0.64 D. The Max slope in the assay on cornea [1] (setting [4]) is on record as 10.14^#.
With `CC1(CCC(=O)N(CCC2(C)N=N2)CC(=O)O)N=N1` [Example 14], the values for the Max slope in the assay on cornea [1] (setting [4]) and with cornea [1] (setting [3]) were 10.5 and 10.66, respectively.
For `CC1(CCNCC(=O)N[C@@H](CC(=O)O)C(=O)NCCC2(C)N=N2)N=N1` [Example 17], in the assay on cornea [1] (setting [3]), the Max slope turned out to be 10.13.
Regarding `CC1(CCC(=O)N(CCC2(C)N=N2)[C@@H]2CCNC2)N=N1` [Example 23], in the assay on cornea [1] (setting [4]), the Max slope was 10.68^#.
Same read-out and setting: next, `CC1(CCNCCC(=O)N[C@@H](CC(=O)O)C(=O)OCCC2(C)N=N2)N=N1` [Example 6]: 10.88^#.

For the origin of these results see patent publication US12344598B2, “Bis(diazirine) derivatives as photo-crosslinker for treating corneal ectatic disorders” (Avedro, Inc., priority 2019, dated 2025).
